≈ marks a conversion by molar mass, not a printed value. Calls of active or inactive are those of the source. The calls are words filed in the database; no cut-off is given here.
Tests used:
[1] = tested on: A549; test: Cytotoxicity against human A549 cells by SRB assay; type: functional; details: read-out: ED50 (the source's name)
[2] = tested on: SK-OV-3; test: Cytotoxicity against human SKOV3 cells by SRB assay; type: functional; details: read-out: ED50 (the source's name)
[3] = tested on: SK-MEL-2; test: Cytotoxicity against human SK-MEL-2 cells by SRB assay; type: functional; details: read-out: ED50 (the source's name)
[4] = tested on: XF498; test: Cytotoxicity against human XF498 cells by SRB assay; type: functional; details: read-out: ED50 (the source's name)
[5] = tested on: HCT-15; test: Cytotoxicity against human HCT15 cells by SRB assay; type: functional; details: read-out: ED50 (the source's name)
[6] = tested on: Trichophyton mentagrophytes; test: Antifungal activity against Trichophyton mentagrophytes by agar diffusion assay; type: functional, organism-based

Row | Compound | EC50 [1] | EC50 [2] | EC50 [3] | EC50 [4] | EC50 [5] | Activity [6]
1 | Oc1cnc2c(O)cccc2c1 [JINEOL] | 5.8 µg/mL (≈ 36 µM) | 4.5 µg/mL (≈ 27.9 µM) | 5.6 µg/mL (≈ 34.7 µM) | 10 µg/mL (≈ 62.1 µM) | 1.9 µg/mL (≈ 11.8 µM) | Active
2 | COc1cnc2c(OC)cccc2c1 [JINEOL METHYL ETHER] | 38 µg/mL (≈ 201 µM) | 32 µg/mL (≈ 169 µM) | 21 µg/mL (≈ 111 µM) | 29 µg/mL (≈ 153 µM) | 42 µg/mL (≈ 222 µM) | 
3 | COc1cccc2c1C(=O)c1c(O)c3c(c(O)c1C2=O)C[C@@](O)(C(=O)CO)C[C@@H]3O[C@H]1C[C@H](N)[C@H](O)[C@H](C)O1 [DOXORUBICIN] | 0.05 µg/mL (≈ 0.092 µM) | 0.11 µg/mL (≈ 0.202 µM) | 0.05 µg/mL (≈ 0.092 µM) | 0.1 µg/mL (≈ 0.184 µM) | 1.8 µg/mL (≈ 3.31 µM) | 
4 | CC(=O)Oc1cnc2c(OC(C)=O)cccc2c1 [JINEOL ACETATE] | 8 µg/mL | 14 µg/mL | 11 µg/mL | 12 µg/mL | 8 µg/mL | 
